The values below come from PubChem BioAssay AID270 (DTP/NCI, 2004).

The test system of this assay is BDF1 mice, s.c. Lewis lung carcinoma, T/C %. Kind of assay: NCI In Vivo Anticancer Drug Screen. Data for tumor model Lewis Lung Carcinoma (subcutaneous) in B6D2F1 (BDF1) mice. The gist of the method: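 The value reflects a ratio in which the treated cohort's survival time or tumour size is compared against mice receiving only vehicle.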
[1] abbreviates: endpoint: mean tumor weight, dose: 100.0 mg/kg/injection, schedule: Q01DX011 (ip), vehicle: carboxymethylcellulose (CMC), higher = larger tumour.
[2] abbreviates: endpoint: mean tumor weight, dose: 12.5 mg/kg/injection, schedule: Q01DX011 (ip), vehicle: saline, higher = larger tumour.
[3] abbreviates: endpoint: mean tumor weight, dose: 25.0 mg/kg/injection, schedule: Q01DX011 (ip), vehicle: saline, higher = larger tumour.
[4] abbreviates: endpoint: mean tumor weight, dose: 50.0 mg/kg/injection, schedule: Q01DX011 (ip), vehicle: saline, higher = larger tumour.
Where [5] appears, read: endpoint: mean tumor weight, dose: 100.0 mg/kg/injection, schedule: Q01DX011 (ip), vehicle: saline, higher = larger tumour.

Where “and” joins values, the source holds several entries; their conditions need not be identical. Identical values can stand only once. Results filed as inconclusive are left out.

Regarding `CNCc1ccccc1`, the T/C is 105 % of control (endpoint: mean tumor weight, dose: 25.0 mg/kg/injection, schedule: Q01DX011 (ip), vehicle: carboxymethylcellulose (CMC), higher = larger tumour); 124 % of control (endpoint: mean tumor weight, dose: 50.0 mg/kg/injection, schedule: Q01DX011 (ip), vehicle: carboxymethylcellulose (CMC), higher = larger tumour); 65 % of control under setting [1].
Take `Oc1ccc(Nc2ccnc3cc(Cl)ccc23)cc1CN(CCCl)CCCl`: the T/C (endpoint: median survival time, dose: 2.5 mg/kg/injection, schedule: Q01DX009 (ip), vehicle: saline, higher = longer survival) was 108 % of control.
Consider `Cc1cc(N(CC(C)Br)CC(C)Br)ccc1N=Nc1ccccc1C(=O)O` (stereo not given), for which the T/C (endpoint: median survival time, dose: 3.12 mg/kg/injection, schedule: Q01DX009 (ip), vehicle: saline with Tween-80, higher = longer survival) is 108 % of control; the T/C (endpoint: median survival time, dose: 6.25 mg/kg/injection, schedule: Q01DX009 (ip), vehicle: saline with Tween-80, higher = longer survival) was 95 % of control and 102 % of control.
As to `CC(C)(C)c1ccc(CN2CCN(C(c3ccccc3)c3ccc(Cl)cc3)CC2)cc1` (stereo not given), the T/C reads like this: (endpoint: median survival time, dose: 0.5 mg/kg/injection, schedule: Q01DX009 (ip), vehicle: saline with Tween-80, higher = longer survival) 112 % of control; (endpoint: median survival time, dose: 2.0 mg/kg/injection, schedule: Q01DX009 (ip), vehicle: saline with Tween-80, higher = longer survival) 112 % of control and 155 % of control and 233 % of control.
For `N/N=C(\N)c1nn(C2OC(CO)C(O)C2O)c2ncnc(N)c12` (stereo not given), the T/C (endpoint: median survival time, dose: 40.0 mg/kg/injection, schedule: Q01DX005 (ip), vehicle: saline, higher = longer survival) was 124 % of control and the T/C (endpoint: median survival time, dose: 80.0 mg/kg/injection, schedule: Q01DX005 (ip), vehicle: saline, higher = longer survival) was 104 % of control.
As to `COC(CCC(C)C1OC23CC(OC(=O)CC(C(C)O)OC(=O)CC(O)(O2)C(C)CC3(C)C)C1C)c1cccc(O)c1` (stereo not given), the T/C was 88 % of control (endpoint: median survival time, dose: 25.0 micrograms/kg/injection, schedule: Q01DX009 (ip), vehicle: other, higher = longer survival); 101 % of control (endpoint: median survival time, dose: 50.0 micrograms/kg/injection, schedule: Q01DX009 (ip), vehicle: other, higher = longer survival); 111 % of control (endpoint: median survival time, dose: 100.0 micrograms/kg/injection, schedule: Q01DX009 (ip), vehicle: other, higher = longer survival).
Consider `Nc1nc(SCc2ccccc2Cl)c2ncn(C3OC(CO)C(O)C3O)c2n1` (stereo not given), for which the T/C is, setting by setting: (endpoint: mean tumor weight, dose: 6.3 mg/kg/injection, schedule: Q01DX011 (ip), vehicle: other, higher = larger tumour) 56 % of control; (endpoint: mean tumor weight, dose: 12.5 mg/kg/injection, schedule: Q01DX011 (ip), vehicle: other, higher = larger tumour) 55 % of control; (endpoint: mean tumor weight, dose: 25.0 mg/kg/injection, schedule: Q01DX011 (ip), vehicle: other, higher = larger tumour) 49 % of control; (endpoint: mean tumor weight, dose: 50.0 mg/kg/injection, schedule: Q01DX011 (ip), vehicle: other, higher = larger tumour) 28 % of control.
`O=C(O)CC(O)(CC(=O)O)C(=O)O.[Ga]`: the T/C under setting [2] was 57 % of control, the T/C under setting [3] was 50 % of control and the T/C under setting [4] was 34 % of control.
For the compound `CC(=O)C(C)=O`, the T/C was 116 % of control under setting [4]; 76 % of control under setting [5]; 71 % of control (endpoint: mean tumor weight, dose: 200.0 mg/kg/injection, schedule: Q01DX011 (ip), vehicle: saline, higher = larger tumour); 87 % of control (endpoint: mean tumor weight, dose: 400.0 mg/kg/injection, schedule: Q01DX011 (ip), vehicle: saline, higher = larger tumour).
As to `CC(C)=CCCC(C)CCO` (stereo not given), under setting [1], the T/C is 72 % of control.
With `NC(=S)N/N=C/c1ncccc1O`, the T/C is 99 % of control (endpoint: mean tumor weight, dose: 6.25 mg/kg/injection, schedule: Q01DX011 (ip), vehicle: saline, higher = larger tumour); 86 % of control under setting [2]; 61 % of control under setting [3]; 31 % of control under setting [4]; 1 % of control under setting [5].
